Measured values as given in patent US20080280933A1, “BENZIMIDAZOLYL COMPOUNDS” (priority 2006, published 2008).

molecular target: T1, mGluR2 receptor (metabotropic glutamate receptor 2) (Homo sapiens, UniProt Q14416); assay: mGluR2 Potentiator Screen, FLIPR, EC10-EC20 glutamate challenge; assay type: cell-based; conditions: EC50 (uM)
T1 construct: expressed in transfected cells
Method in brief: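 HEK cells stably co-expressing mGluR2 and Gα15, kept glutamine-free overnight, were loaded with Fluo-4 plus probenecid and GPT/pyruvate. Compounds (top 10 μM) were added ≥30 min before an EC10–EC20 glutamate challenge. Peak FLIPR fluorescence ratios were curve-fitted, excluding points above maximal effect, with maxima from on-plate standards.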

T1 sequence (Q14416 19-872, species assumed): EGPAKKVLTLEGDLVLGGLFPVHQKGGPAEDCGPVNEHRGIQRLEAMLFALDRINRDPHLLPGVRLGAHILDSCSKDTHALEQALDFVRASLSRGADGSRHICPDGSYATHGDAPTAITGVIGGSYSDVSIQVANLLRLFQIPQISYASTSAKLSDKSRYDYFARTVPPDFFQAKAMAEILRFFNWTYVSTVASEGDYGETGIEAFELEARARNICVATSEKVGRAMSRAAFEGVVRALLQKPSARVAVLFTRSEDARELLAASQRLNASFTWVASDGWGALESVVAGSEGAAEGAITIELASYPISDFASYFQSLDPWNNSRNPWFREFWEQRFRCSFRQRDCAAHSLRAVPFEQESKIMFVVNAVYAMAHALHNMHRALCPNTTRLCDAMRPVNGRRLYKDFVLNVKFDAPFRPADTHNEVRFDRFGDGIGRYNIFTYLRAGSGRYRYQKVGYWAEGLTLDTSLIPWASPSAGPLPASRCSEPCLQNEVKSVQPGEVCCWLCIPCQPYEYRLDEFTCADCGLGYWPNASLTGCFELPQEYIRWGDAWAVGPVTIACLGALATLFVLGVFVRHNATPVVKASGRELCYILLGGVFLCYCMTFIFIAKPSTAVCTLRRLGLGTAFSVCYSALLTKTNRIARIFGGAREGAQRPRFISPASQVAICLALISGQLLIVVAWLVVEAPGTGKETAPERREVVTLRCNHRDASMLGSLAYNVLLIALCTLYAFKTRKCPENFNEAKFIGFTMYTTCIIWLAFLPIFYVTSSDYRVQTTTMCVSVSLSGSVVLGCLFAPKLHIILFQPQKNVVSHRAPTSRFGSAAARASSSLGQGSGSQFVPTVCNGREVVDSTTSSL

Compound	EC50 [µM]
CCC(=O)C1(c2ccccc2)CCN(Cc2nc3ccccc3n2C)CC1 [compound 73]	3.97

same assay, conditions: listed as 11; read-out: EC50

Compound	EC50 [µM]
Methyl 2-((4-(2-methoxyphenyl)piperidin-1-yl)methyl)-1-methyl-1H-benzo[d]imidazole-5-carboxylate [Entry 296]	3.64

same assay, conditions: mGluR2 potentiator screen, Table 7; read-out: EC50

Compound	EC50 [µM]
Cn1c(CN2CCC(c3ccccc3Cl)CC2)nc2ccccc21 [compound 161]	0.144
Cn1c(CN2CCC(c3cc(Cl)ccc3OCC3CCC3)CC2)nc2ccccc21 [compound 194]	0.473
CCCCOc1ccc(Cl)cc1C1CCN(Cc2nc3ccccc3n2C2CC2)CC1 [compound 183]	1.52
CC(C)COc1ccc(Cl)cc1C1CCN(Cc2nc3ccccc3n2CCF)CC1 [compound 181]	2.11
Clc1ccc(OCC2CCCCO2)c(C2CCN(Cc3nc4ccccc4n3C3CC3)CC2)c1 (stereo not drawn) [compound 214]	2.01
Clc1ccc(OCC2CCCO2)c(C2CCN(Cc3nc4ccccc4n3C3CC3)CC2)c1 (stereo not drawn) [compound 206]	2.6
CCCCOc1ccc(Cl)cc1C1CCN(Cc2nc3ccccc3n2CF)CC1 [compound 182]	0.355
Cn1c(CN2CCC(c3ccc(F)cc3)C2)nc2ccccc21 (stereo not drawn) [compound 155]	1.65
Cn1c(CN2CCC(c3cccc(C(F)(F)F)c3)C(O)C2)nc2ccccc21 (stereo not drawn) [compound 167]	4.38
Cn1c(CN2CCC(c3ccccc3)C2)nc2ccccc21 (stereo not drawn) [compound 151]	4.1
COCCn1c(CN2CCC(c3cc(Cl)ccc3OCC3CCOC3)CC2)nc2ccccc21 (stereo not drawn) [compound 205]	3.35
FCn1c(CN2CCC(c3cc(Cl)ccc3OCC3CCC3)CC2)nc2ccccc21 [compound 193]	2.34
Cn1c(CN2CCC(c3cccc(C(F)(F)F)c3)CC2)nc2ccccc21 [compound 162]	0.254
FCCn1c(CN2CCC(c3cc(Cl)ccc3OCC3CCCO3)CC2)nc2ccccc21 (stereo not drawn) [compound 210]	1.04

same assay, conditions: read-out: EC50

Compound	EC50 [µM]
CC(C)Oc1ccccc1C1CCN(Cc2nc3ccccc3n2C)CC1 [compound 78]	0.475
COc1ccc(Cl)cc1C1CCN(Cc2nc3ccccc3n2C2CC2)CC1 [compound 229]	0.357
Cn1c(CN2CCC(c3ccc(C(F)(F)F)cc3)C(F)C2)nc2cccc(F)c21 (stereo not drawn) [compound 445]	0.137
CCCCN1CC2(CCN(Cc3nc4ccccc4n3C)CC2)c2ccccc21 [compound 132]	1.34
(2-((4-(2-Fluorophenyl)piperidin-1-yl)methyl)-1-methyl-1H-benzo[d]imidazol-5-yl)methanol [Entry 297]	0.914
Cn1c(CN2CCC3(CC2)CN(C(=O)c2ccsc2)c2ccccc23)nc2ccccc21 [compound 49]	1.2
COc1cc(F)ccc1C1CCN(Cc2nc3cc(F)ccc3n2C)CC1 [compound 408]	0.0672
CC1CN(Cc2nc3ccccc3n2C)CCC1c1ccc(OC(F)(F)F)cc1F (stereo not drawn) [compound 474]	0.0767
CC(C)CN1CC2(CCN(Cc3nc4ccccc4n3C)CC2)c2cc(F)ccc21 [compound 115]	6.49
COc1ccccc1C1CCN(Cc2nc3cc(F)c(F)cc3n2C)CC1 [compound 258]	0.0805
Fc1ccc(C(F)(F)F)cc1C1CCN(Cc2nc3ccccc3n2C2CC2)CC1 [compound 327]	1.98
Cn1c(CN2CCC(c3ccccc3F)CC2)nc2cc(F)ccc21 [compound 351]	0.0877
COc1cc(F)ccc1C1CCN(Cc2nc3ccccc3n2C)CC1 [compound 409]	0.0634
CC(=O)N1CC2(CCN(Cc3nc4ccccc4n3C)CC2)c2cc(Cl)ccc21 [compound 26]	2.45
COc1cc(C(F)(F)F)ccc1C1CCN(Cc2nc3c(Br)cccc3n2C)CC1 [compound 356]	3.9
COCCn1c(CN2CCC(c3ccc(C(F)(F)F)cc3)CC2)nc2ccccc21 [compound 246]	0.418
Cn1c(CN2CCC(c3ccccc3C(F)(F)F)CC2)nc2c(F)cccc21 [compound 394]	0.232
COc1ccccc1C1CCN(Cc2nc3ccccc3n2C)CC1C (stereo not drawn) [compound 292]	0.143
CCOCCCOc1ccccc1C1CCN(Cc2nc3ccccc3n2C)CC1 [compound 91]	1.4
C[C@@H]1CN(Cc2nc3ccccc3n2C)CC[C@@H]1c1ccc(F)c(F)c1 (single isomer, unassigned) [Entry 472, 2-{[Cis-4-(3,4-Difluoro-phenyl)-3-methyl-piperidin-1-yl]methyl}-1-methyl-1H-benzoimidazole]	0.152
COc1ccc(C(F)(F)F)cc1C1CCN(Cc2nc3cc(F)c(F)cc3n2C)CC1 [compound 321]	1.51
Cn1c(CN2CCC3(CC2)CN(Cc2cccnc2)c2ccc(Cl)cc23)nc2ccccc21 [compound 108]	> 8.73

Compound	EC50 [µM]
Cc1noc(C)c1C(=O)N1CC2(CCN(Cc3nc4ccccc4n3C)CC2)c2cc(Cl)ccc21 [compound 39]	2.83
Cn1c(CN2CCC(c3ccc(C(F)(F)F)cc3)C(O)C2)nc2ccccc21 (stereo not drawn) [compound 428]	1.12
CC(C)OCCOc1ccccc1C1CCN(Cc2nc3ccccc3n2C)CC1 [compound 87]	0.621
C[C@H]1C[C@@H](c2ccc(C(F)(F)F)cc2)CCN1Cc1nc2ccccc2n1C (relative stereo) [compound 457]	0.454
Cn1c(CN2CCC(c3ccc(Cl)c(F)c3)CC2)nc2cccc(F)c21 [compound 453]	0.157
COC(=O)CCCCC(=O)N1CC2(CCN(Cc3nc4ccccc4n3C)CC2)c2ccccc21 [compound 51]	7.13
COc1cc(C(F)(F)F)ccc1C1CCN(Cc2nc3cc(Cl)ccc3n2C)CC1 [compound 383]	0.307
Cn1c(CN2CCC(c3ccccc3F)CC2)nc2cc(CO)ccc21 [Entry 297, (2-((4-(2-Fluorophenyl)piperidin-1-yl)methyl)-1-methyl-1H-benzo[d]imidazol-5-yl)methanol]	0.169
CC(=O)N1CC2(CCN(Cc3nc4ccccc4n3C)CC2)c2cc(C)ccc21 [compound 22]	3.83
Cn1c(CN2CCC3(CC2)CN(CC2CC2)c2ccc(Cl)cc23)nc2ccccc21 [compound 129]	2.51
COc1ccccc1C1CCN(Cc2nc3c(Cl)cccc3n2C)CC1 [compound 270]	0.838
CN1CC2(CCN(Cc3nc4ccccc4n3C)CC2)c2ccccc21 [compound 135]	2.35
COCn1c(CN2CCC(c3ccc(C(F)(F)F)cc3)CC2)nc2ccccc21 [compound 287]	1.9
Cn1c(CN2CCC(c3ccc(F)cc3)CC2)nc2c(Br)cccc21 [compound 366]	2.14
Cn1c(CN2CCC3(CC2)CN(C(=O)COc2ccccc2)c2ccccc23)nc2ccccc21 [compound 57]	0.508
COC(=O)CCC(=O)N1CC2(CCN(Cc3nc4ccccc4n3C)CC2)c2cc(Cl)ccc21 [compound 42]	3.23
Cn1c(CN2CCC(c3ccccc3OCC3CCC3)CC2)nc2ccccc21 [compound 84]	0.744
CCC(C)CN1CC2(CCN(Cc3nc4ccccc4n3C)CC2)c2cc(C)ccc21 (stereo not drawn) [compound 141]	5.67
Cc1ccc2c(c1)C1(CCN(Cc3nc4ccccc4n3C)CC1)CN2CCC(C)C [compound 120]	2.7
COc1cc(C(F)(F)F)ccc1C1CCN(Cc2nc3c(F)cccc3n2C)CC1 [compound 400]	0.0436
CC(C)COc1ccccc1C1CCN(Cc2nc3ccccc3n2C)CC1 [compound 96]	> 3.92
Cn1c(CN2CCC(c3ccccc3)CC2)nc2ccccc21 [compound 74]	0.212

Compound	EC50 [µM]
Fc1ccc(C2CCN(Cc3nc4ccccc4n3C3CC3)CC2)cc1 [compound 369]	1.77
5-(2-Methoxy-phenyl)-1-(1-methyl-1H-benzoimidazol-2-ylmethyl)-azepan-2-one [Entry 291]	0.916
Methyl 2-((4-(2-methoxyphenyl)piperidin-1-yl)methyl)-1-methyl-1H-benzo[d]imidazole-5-carboxylate [Entry 296]	0.414
Cn1c(CN2CCC(c3ccc(Cl)c(C(F)(F)F)c3)CC2)nc2ccccc21 [compound 446]	0.0429
Cn1c(CN2CCC(c3ccccc3F)CC2)nc2cccc(Br)c21 [compound 312]	0.0601
Cn1c(CN2CCC(c3cccc(F)c3)CC2)nc2ccccc21 [compound 430]	3.31
Cc1cc(C)c2c(c1)C1(CCN(Cc3nc4ccccc4n3C)CC1)CN2 [compound 147]	5.81
Cn1c(CN2CCC(c3ccc(F)cc3)CC2)nc2cc(C#N)ccc21 [compound 331]	0.299
Cn1c(CN2CCC(c3ccc(F)c(Cl)c3)CC2)nc2cccc(F)c21 [compound 444]	0.131
C[C@@H]1CN(Cc2nc3ccccc3n2C)CC[C@@H]1c1ccc(C(F)(F)F)cc1Cl (relative stereo) [compound 467]	0.0531
Cn1c(CN2CCC(c3ccc(C(=O)NC4CCCC4)cc3)CC2)nc2ccccc21 [compound 437]	5.27
Cc1cc(C)cc(C2CCN(Cc3nc4ccccc4n3C)CC2)c1 [compound 302]	0.0374
C[C@@H]1CN(Cc2nc3ccccc3n2C)CC[C@]1(C)c1cccc(NS(C)(=O)=O)c1 [compound 80]	> 1.25
Cn1c(CN2CCC(c3cccc(C(F)(F)F)c3)CC2)nc2c(F)cccc21 [compound 396]	0.123
2-[4-(2-Methoxy-phenyl)-piperidin-1-ylmethyl]-1-methyl-1H-benzoimidazol-4-ylamine [Entry 264]	5.21
Cn1c(CN2CCC(c3ccccc3OCCC3CC3)CC2)nc2ccccc21 [compound 92]	> 3.27
Cn1c(CN2CCC(c3ccccc3)CCC2=O)nc2ccccc21 (stereo not drawn) [compound 289]	> 9.88
Cn1c(CN2CCC(c3ccc(C(F)(F)F)cc3)CC2)nc2c(F)cccc21 [compound 314]	0.0438
Cn1c(CN2CC[C@@H]3c4ccccc4CC[C@@H]3C2)nc2ccccc21 [compound 67]	0.693
Cn1c(CN2CCC(F)(c3ccc(C(F)(F)F)cc3)CC2)nc2ccccc21 [compound 433]	0.122
CCCC(=O)N1CC2(CCN(Cc3nc4ccccc4n3C)CC2)c2ccccc21 [compound 64]	1.41
